# Patent US20100331361A1, “PHARMACEUTICAL COMPOSITION CONTAINING ALPHA-ADRENERGIC RECEPTOR ANTAGONIST AND AN ANTI-MUSCARINIC AGENT AND METHOD OF IMPROVING LOWER URINARY TRACT SYMPTOMS ASSOCIATED WITH PROSTATIC HYPERTROPHY” (ASTELLAS PHARMA INC., priority 2007, published 2010)
# Counter-ions that a name gives are not always drawn.
# Tests used:
# [1] = test system: patients with prostatic hypertrophy accompanied with overactive bladder symptoms; conditions: cited from earlier work
# [2] = test system: Male human patients with prostatic hypertrophy who still had symptoms of overactive bladder; test: I-PSS evaluation after four weeks, Single Group vs Combination Group (Example 1); assay type: in vivo; parameters: key to Scores of voiding symptoms (2) (4) (7) / Scores of voiding symptoms (2) (4) (7), Change / Total scores of I-PSS / Scores of storage symptoms (1) (3) (5) (6) / Scores of storage symptoms (1) (3) (5) (6), Change: summed item scores, each 0-5; higher = worse symptoms
# Source text: I-PSS is one of the criteria to evaluate the severity of the foregoing lower urinary tract symptoms by scoring responses to the following questions:
# (2) During the last month, have you had to urinate again in less than two hours after you last urinated? (3) During the last month, have you experienced interrupted urination? (4) During the last month, have you found it difficult to postpone urination? […] (6) During the last month, have you had to strain to urinate? (7) During the last month, how many times did you typically have to get up to urinate after you went to bed until you got up in the morning?
# The indices (1), (3), (5) and (6) evaluate voiding symptoms, and indices (2), (4) and (7) evaluate storage symptoms. Among these, responses to (1)-(6) are scored: 0 if the response was not at all, 1 if fewer than 1 time in 5, 2 if fewer than 1 time in 2, 3 if about 1 time in 2, 4 if more than 1 time in 2, and 5 if almost always. Additionally, the responses to (7) are respectively scored: 0, 1, 2, 3, 4, and 5 if the response was none, 1 time, 2 times, 3 times, 4 times, and 5 times or more.
# Male human patients with prostatic hypertrophy who still had symptoms of overactive bladder (urgency, pollakiuria, urinary incontinence and/or nocturia, and the like.) after treatment with an α receptor antagonist for four weeks or longer were allocated for administration to two treatment groups: (1) tamsulosin hydrochloride 0.2 mg (hereinafter referred to as “Single Group”), and (2) tamsulosin hydrochloride 0.2 mg and solifenacin succinate 2.5 mg (hereinafter referred to as “Combination Group”), and then their symptoms were evaluated by I-PSS after four weeks of treatment. In Table 1 since the score of I-PSS becomes greater as the symptom worsens, greater minus change in scores indicates greater efficacy for the symptoms.
# [3] = After treatment of 4 weeks, tamsulosin hydrochloride 0.2 mg alone or with solifenacin succinate 2.5 mg
# [4] = Before treatment, tamsulosin hydrochloride 0.2 mg alone or with solifenacin succinate 2.5 mg
# [5] = Change after 4 weeks, tamsulosin hydrochloride 0.2 mg alone or with solifenacin succinate 2.5 mg
smiles,measurement,setting,value
CCCOC(C(=O)OC1CCN(C)CC1)(c1ccccc1)c1ccccc1 [Propiverine],acute urinary retention (AUR),[1]; added to doxazosin,no acute AUR was observed
same,effect on the urinary flow rate,[1]; added to doxazosin,did not affect
"CCOc1ccccc1OCCN[C@H](C)Cc1ccc(OC)c(S(N)(=O)=O)c1 [Single, (R)-5-(2-{[2-(2-ethoxyphenoxy)ethyl]amino}propyl-2-methoxybenzene-1-sulfonamide hydrochloride]",Scores of storage symptoms (1) (3) (5) (6),[2]; [3],5.8
same,Scores of voiding symptoms (2) (4) (7),[2]; [3],4.2
same,Total scores of I-PSS,[2]; [3],10.8
same,Total scores of I-PSS,"[2]; Before treatment, tamsulosin hydrochloride 0.2 mg alone (Single) or with solifenacin succinate 2.5 mg (Combination)",11.6
same,Scores of storage symptoms (1) (3) (5) (6),[2]; [4],6.5
same,Scores of voiding symptoms (2) (4) (7),[2]; [4],4.2
same,"Scores of storage symptoms (1) (3) (5) (6), Change",[2]; [5],−0.7
same,"Scores of voiding symptoms (2) (4) (7), Change",[2]; [5],0.0
same,"Total scores of I-PSS, Change",[2]; [5],−0.8
COc1cc2nc(N3CCN(C(=O)C4COc5ccccc5O4)CC3)nc(N)c2cc1OC (centres unmarked) [doxazosin],improvement of the storage symptom score,[1]; in vivo,2.9 points
same,improvement of the total I-PSS,[1]; in vivo,7.3 points
same,improvement of the voiding symptom score,[1]; in vivo,4.5 points
